Experimental findings from patent US7691382B2, “Antiviral polypeptides comprising tandem repeats of APOE 141-149 and variants thereof” (priority 2003, dated 2010) are described below.

The test system of one experiment is HIV-1. To be noted: NP2 glioma cells, peptide 0.1 to 10 micromolar.
The next experiment has as its system HSV1. Format: cell-based, Human herpes simplex virus type 1. To be noted: for efficacy for reducing HSV1 infectivity (in words): Examples 2 and 3. An outline of the steps: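 Plaque reduction in Vero monolayers: ~100 pfu HSV1 pre-mixed 10 min at 37 °C with acetylated/amidated peptides in 0.5% FCS medium, inoculated 60–80 min, then carboxymethylcellulose overlay for 22 or 40 h. Plaques counted after fixing and carbol fuchsin staining; IC50 from % of control versus peptide concentration.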

The next experiment concerns HSV2 clinical isolates. Type of experiment: cell-based, Human herpes simplex virus type 2. The protocol:
Plaque assays were performed. The methodology was as described in previous Examples for HSV1 plaque assays (including usage of Vero cells) except HSV2 clinical isolates (provided by Prof. Anthony Hart of Liverpool University) were employed instead.

The test system of the next experiment is HIV-1 111B. Description: HIV-1 111B in C8166 T-cells, syncytia and gp120 ELISA. Type of experiment: cell-based, Human Immunodeficiency Virus. To be noted: 5 days, read-out: IC50 for inhibiting HIV-1 growth. The protocol: Peptides (prepared as described previously) were diluted in 50 μl aliquots and mixed with T-cells (C8166) at 40,000 cells per well. Next HIV-1 111B was added at a multiplicity of infection (MOI) of 0.01, and the mixture incubated for 5 days at 37° C. Syncytia formation was assessed visually using an inverting microscope, and viral gp120 levels in supernatants assessed by a gp120 ELISA using GNA for antigen capture. 96-well plates coated with 50 ul GNA (Galanthus nivalis) were washed, then treated with 100 μl RPMI (10% foetal calf serum) and left for one hour. After further washing, 25 μl test sample supernatants were added to wells, along with dilutions of infected control samples. After lysis by 3 hr treatment with 0.5% Empigen (detergent used to lyse virus) to all wells, and washing, 50 μl of human anti-HIV sera was added, and plates incubated overnight. After further washing, 50 μl of a 1000× dilution of anti-human Ig peroxidase conjugate was added, and plates incubated at 37° C. for 90 min. After a final wash, 50 ul peroxidase substrate was added to each well, and plates incubated for 10-30 min. Reaction was stopped with 25 μl 2M H2SO4, and A450 measured.
For orientation: ELISA stands for enzyme-linked immunosorbent assay.

Each structure is given as a SMILES string. Peptide text beside a SMILES is read from it. Where only a bound is given, the exact number is not on record here.

Consider `CC(=O)N[C@@H](CC(C)C)C(=O)N[C@@H](CCCNC(=N)N)C(=O)N[C@@H](CCCCN)C(=O)N[C@@H](CC(C)C)C(=O)N[C@@H](CCCNC(=N)N)C(=O)N[C@@H](CCCCN)C(=O)N[C@@H](CCCNC(=N)N)C(=O)N[C@@H](CC(C)C)C(=O)N[C@@H](CC(C)C)C(=O)N[C@@H](CC(C)C)C(=O)N[C@@H](CCCNC(=N)N)C(=O)N[C@@H](CCCCN)C(=O)N[C@@H](CC(C)C)C(=O)N[C@@H](CCCNC(=N)N)C(=O)N[C@@H](CCCCN)C(=O)N[C@@H](CCCNC(=N)N)C(=O)N[C@@H](CC(C)C)C(=O)N[C@@H](CC(C)C)C(N)=O` [GIN 1p] (Ac-LRKLRKRLLLRKLRKRLL-NH2), for which the “anti-HIV activity (in words)” value with HIV-1 is reported as “no detectable anti-HIV activity”. In the experiment with HSV1, the “efficacy for reducing HSV1 infectivity (in words)” value was “had anti-HSV-1 properties”.

Broadly, the IC50 is the concentration that gives 50% inhibition. Regarding `CC(=O)N[C@@H](Cc1c[nH]c2ccccc12)C(=O)N[C@@H](CCCNC(=N)N)C(=O)N[C@@H](CCCCN)C(=O)N[C@@H](Cc1c[nH]c2ccccc12)C(=O)N[C@@H](CCCNC(=N)N)C(=O)N[C@@H](CCCCN)C(=O)N[C@@H](CCCNC(=N)N)C(=O)N[C@@H](Cc1c[nH]c2ccccc12)C(=O)N[C@@H](CCCNC(=N)N)C(=O)N[C@@H](CCCCN)C(=O)N[C@@H](Cc1c[nH]c2ccccc12)C(=O)N[C@@H](CCCNC(=N)N)C(=O)N[C@@H](CCCCN)C(=O)N[C@@H](CCCNC(=N)N)C(N)=O` [GIN 32] (Ac-WRKWRKRWRKWRKR-NH2), the IC50 in the experiment with HSV2 clinical isolates was 6.25 µM; in the experiment with HSV1, 10 µM; in the experiment on HIV-1 111B it was 7.5 µM. For the same compound, in the experiment with HSV1, the “efficacy for reducing HSV1 infectivity (in words)” value is reported as “also had efficacy”.

In the case of `CC(=O)N[C@@H](Cc1c[nH]c2ccccc12)C(=O)N[C@@H](CCCNC(=N)N)C(=O)N[C@@H](CCCCN)C(=O)N[C@@H](Cc1c[nH]c2ccccc12)C(=O)N[C@@H](CCCNC(=N)N)C(=O)N[C@@H](CCCCN)C(=O)N[C@@H](CCCNC(=N)N)C(=O)N[C@@H](Cc1c[nH]c2ccccc12)C(=O)N[C@@H](CCCNC(=N)N)C(=O)N[C@@H](CCCCN)C(=O)N[C@@H](Cc1c[nH]c2ccccc12)C(=O)N[C@@H](CCCNC(=N)N)C(=O)N[C@@H](CCCCN)C(=O)N[C@@H](CCCNC(=N)N)C(=O)N[C@@H](Cc1c[nH]c2ccccc12)C(N)=O` [MU 59] (Ac-WRKWRKRWRKWRKRW-NH2), the IC50 in the experiment on HSV2 clinical isolates was determined as 10 µM; with HSV1, 9.75 µM.

As for `CC(=O)N[C@@H](Cc1c[nH]c2ccccc12)C(=O)N[C@@H](CCCNC(=N)N)C(=O)N[C@@H](CCCCN)C(=O)N[C@@H](Cc1c[nH]c2ccccc12)C(=O)N[C@@H](CCCNC(=N)N)C(=O)N[C@@H](CCCCN)C(=O)N[C@@H](CCCNC(=N)N)C(=O)N[C@@H](Cc1c[nH]c2ccccc12)C(=O)N[C@@H](Cc1c[nH]c2ccccc12)C(=O)N[C@@H](CCCNC(=N)N)C(=O)N[C@@H](Cc1c[nH]c2ccccc12)C(=O)N[C@@H](CCCNC(=N)N)C(=O)N[C@@H](CCCCN)C(=O)N[C@@H](Cc1c[nH]c2ccccc12)C(=O)N[C@@H](CCCNC(=N)N)C(=O)N[C@@H](CCCCN)C(=O)N[C@@H](CCCNC(=N)N)C(=O)N[C@@H](Cc1c[nH]c2ccccc12)C(=O)N[C@@H](Cc1c[nH]c2ccccc12)C(=O)N[C@@H](CCCNC(=N)N)C(N)=O` [MU 83] (Ac-WRKWRKRWWRWRKWRKRWWR-NH2), the IC50 with HSV2 clinical isolates was < 3.3 µM; with HSV1, 2.5 µM.

On to `CC(=O)N[C@@H](CC(C)C)C(=O)N[C@@H](CCCNC(=N)N)C(=O)N[C@@H](CCCCN)C(=O)N[C@@H](CC(C)C)C(=O)N[C@@H](CCCNC(=N)N)C(=O)N[C@@H](CCCCN)C(=O)N[C@@H](CCCNC(=N)N)C(=O)N[C@@H](CC(C)C)C(=O)N[C@@H](CC(C)C)C(=O)N[C@@H](Cc1c[nH]c2ccccc12)C(=O)N[C@@H](CCCNC(=N)N)C(=O)N[C@@H](CCCCN)C(=O)N[C@@H](Cc1c[nH]c2ccccc12)C(=O)N[C@@H](CCCNC(=N)N)C(=O)N[C@@H](CCCCN)C(=O)N[C@@H](CCCNC(=N)N)C(=O)N[C@@H](Cc1c[nH]c2ccccc12)C(=O)N[C@@H](Cc1c[nH]c2ccccc12)C(N)=O` [MU 111] (Ac-LRKLRKRLLWRKWRKRWW-NH2), for which the IC50 with HSV2 clinical isolates worked out at 6.5 µM; in the experiment on HSV1 it was 12.5 µM.

As to `CC(=O)N[C@@H](CC(C)C)C(=O)N[C@@H](CCCNC(=N)N)C(=O)N[C@@H](CCCCN)C(=O)N[C@@H](CC(C)C)C(=O)N[C@@H](CCCNC(=N)N)C(=O)N[C@@H](CCCCN)C(=O)N[C@@H](CCCNC(=N)N)C(=O)N[C@@H](CC(C)C)C(=O)N[C@@H](CC(C)C)C(=O)N[C@@H](CC(C)C)C(=O)N[C@@H](CCCNC(=N)N)C(=O)N[C@@H](CCCCN)C(=O)N[C@@H](CC(C)C)C(=O)N[C@@H](CCCNC(=N)N)C(=O)N[C@@H](CCCCN)C(=O)N[C@@H](CCCNC(=N)N)C(=O)N[C@@H](Cc1c[nH]c2ccccc12)C(=O)N[C@@H](Cc1c[nH]c2ccccc12)C(N)=O` [MU 112] (Ac-LRKLRKRLLLRKLRKRWW-NH2), the IC50 was 16 µM in the experiment on HSV2 clinical isolates and > 20 µM in the experiment on HSV1.

In the case of `CC(=O)N[C@@H](CC(C)C)C(=O)N[C@@H](CCCNC(=N)N)C(=O)N[C@@H](CCCCN)C(=O)N[C@@H](CC(C)C)C(=O)N[C@@H](CCCNC(=N)N)C(=O)N[C@@H](CCCCN)C(=O)N[C@@H](CCCNC(=N)N)C(=O)N[C@@H](CC(C)C)C(=O)N[C@@H](CC(C)C)C(=O)N[C@@H](Cc1c[nH]c2ccccc12)C(=O)N[C@@H](CCCNC(=N)N)C(=O)N[C@@H](CCCCN)C(=O)N[C@@H](Cc1c[nH]c2ccccc12)C(=O)N[C@@H](CCCNC(=N)N)C(=O)N[C@@H](CCCCN)C(=O)N[C@@H](CCCNC(=N)N)C(=O)N[C@@H](CC(C)C)C(=O)N[C@@H](CC(C)C)C(N)=O` [MU 113] (Ac-LRKLRKRLLWRKWRKRLL-NH2), the IC50 worked out at 11.8 µM in the experiment with HSV2 clinical isolates and 18.5 µM in the experiment with HSV1.

As to `CC(=O)N[C@@H](Cc1c[nH]c2ccccc12)C(=O)N[C@@H](CCCNC(=N)N)C(=O)N[C@@H](CCCCN)C(=O)N[C@@H](Cc1c[nH]c2ccccc12)C(=O)N[C@@H](CCCNC(=N)N)C(=O)N[C@@H](CCCCN)C(=O)N[C@@H](CCCNC(=N)N)C(=O)N[C@@H](CC(C)C)C(=O)N[C@@H](CC(C)C)C(=O)N[C@@H](CC(C)C)C(=O)N[C@@H](CCCNC(=N)N)C(=O)N[C@@H](CCCCN)C(=O)N[C@@H](CC(C)C)C(=O)N[C@@H](CCCNC(=N)N)C(=O)N[C@@H](CCCCN)C(=O)N[C@@H](CCCNC(=N)N)C(=O)N[C@@H](CC(C)C)C(=O)N[C@@H](CC(C)C)C(N)=O` [MU 114] (Ac-WRKWRKRLLLRKLRKRLL-NH2), the IC50 turned out to be 9 µM in the experiment with HSV2 clinical isolates and 16 µM with HSV1.
